IC50 data for 22 compounds are collected here from patent US9149475B2, “Protein kinase C inhibitors and uses thereof” (Rigel Pharmaceuticals, Inc., priority 2009, dated 2015).

The first test has as its system Human primary T cells. Nature of the test: IL-2 ELISA, human primary T cell, anti-CD3+CD28+ (whole cell assay). In kind it is cell-based. The settings on record: Homo sapiens, T-cell, 24 h, human primary T cells stimulated with anti-CD3 + anti-CD28, 24 hours. On the procedure:
(§1) Human primary T cells were prepared as follows. Whole blood was obtained from a healthy volunteer, mixed 1:1 with PBS, layered on to Ficoll Hypaque (Amersham Pharmacia Biotech, Piscataway, N.J., Catalog #17-1440-03) in 2:1 blood/PBS:ficoll ratio and centrifuged for 30 minutes at 4° C. at 1750 rpm. The cells at the serum:ficoll interface were recovered and washed twice with 5 volumes of PBS. These freshly isolated human peripheral blood mononuclear cells were cultured in Yssel's medium containing 40 U/mL IL2 in a flask pre-coated with 1 μg/mL αCD3 and 5 μg/mL αCD28 (Anti-Human CD3, BD Pharmingen Catalog #555336, Anti-Human CD28, Beckman Coulter Catalog #IM1376). The cells were stimulated for 3-4 days, then transferred to a fresh flask and maintained in RPMI (RPMI-1640 with L-Glutamine; Mediatech, Inc., Herndon Va., cat. #10-040-CM) with 10% FBS and 40 U/mL IL-2. The primary T-cells were then washed twice with PBS to remove the IL-2.
Human primary T cells (100,000 cells per well) were pre-incubated with or without test compound in Yssel's medium for 1 hr at 37° C. Cells were then stimulated by transferring them to round-bottom 96-well plates pre-coated with 1 μg/ml μCD3 and 5 μg/ml μCD28. For counter assay, cells were instead stimulated by adding 8× stock solutions of PMA and ionomycin in Yssels (for final concentrations of 0.5 ng/ml PMA and 0.1 μM ionomycin, both from Calbiochem). Cells were incubated at 37° C. for 24 hours before 100 μL supernatants were harvested for quantification of IL-2 by ELISA using Human IL-2 Duoset ELISA Kit from R and D Systems, Cat. #DY202E.
as §1, with “Human primary T cell isolation and culture: Human primary” for “Human primary”, “for 30 min at 4°” for “for 30 minutes at 4°”, “at the serum: ficoll interface were” for “at the serum:ficoll interface were”
Primary T cell stimulation and IL2 ELISA: Human primary T cells (100,000 cells per well) were pre-incubated with or without test compound in Yssel's medium for 1 hr at 37° C. Cells were then stimulated by transferring them to round-bottom 96-well plates pre-coated with 1 μg/ml αCD3 and 5 μg/ml αCD28. For counter assay, cells were instead stimulated by adding 8× stock solutions of PMA and ionomycin in Yssels (for final concentrations of 0.5 ng/ml PMA and 0.1 μM ionomycin, both from Calbiochem). Cells were incubated at 37° C. for 24 hours before 100 μL supernatants were harvested for quantification of IL-2 by ELISA using Human IL-2 Duoset ELISA Kit from R and D Systems, Cat. #DY202E.
As usually defined, the IC50 is the concentration that gives 50% inhibition. Consider `CN1C(C)(C)CC(Nc2nc(Nc3cc(OCCn4ccnn4)cc(C(F)(F)F)c3)ncc2F)CC1(C)C` [Compound I-33, N2-(3-(2-(1H-1,2,3-triazol-1-yl)ethoxy)-5-(trifluoromethyl)phenyl)-5-fluoro-N4-(1,2,2,6,6-pentamethylpiperidin-4-yl)pyrimidine-2,4-diamine], for which the IC50 lay within 250 to 500 nM.

`CC1(C)CC(Nc2nc(Nc3ccc(O[C@H]4CCOC4)c(OC(F)F)c3)ncc2F)CC(C)(C)N1` [III-100, (S)—N2-(3-(difluoromethoxy)-4-(tetrahydrofuran-3-yloxy)phenyl)-5-fluoro-N4-(2,2,6,6-tetramethylpiperidin-4-yl)pyrimidine-2,4-diamine]: the half-maximal inhibitory concentration (IC50) is 250 to 500 nM.

As to `CN1C(C)(C)CC(Nc2nc(Nc3ccc(OC4CCOCC4)c(OC(F)F)c3)ncc2F)CC1(C)C` [III-22, N2-(3-(difluoromethoxy)-4-(tetrahydro-2H-pyran-4-yloxy)phenyl)-5-fluoro-N4-(1,2,2,6,6-pentamethylpiperidin-4-yl)pyrimidine-2,4-diamine], the IC50 was less than 250 nM.

For `CN1C(C)(C)CC(Nc2nc(Nc3ccc(O[C@H]4CCOC4)c(OC(F)F)c3)ncc2F)CC1(C)C` [III-99, (S)—N2-(3-(difluoromethoxy)-4-(tetrahydrofuran-3-yloxy)phenyl)-5-fluoro-N4-(1,2,2,6,6-pentamethylpiperidin-4-yl)pyrimidine-2,4-diamine], the IC50 was less than 250 nM.

For `CN1C(C)(C)CC(Nc2nc(Nc3cc(F)cc(-c4nnnn4C)c3)ncc2F)CC1(C)C` [III-139, 5-fluoro-N2-(3-fluoro-5-(1-methyl-1H-tetrazol-5-yl)phenyl)-N4-(1,2,2,6,6-pentamethylpiperidin-4-yl)pyrimidine-2,4-diamine], the IC50 is less than 250 nM.

In the case of `[2H]C([2H])([2H])N1C(C)(C)CC(Nc2nc(Nc3ccc(C)c(-n4cnnn4)c3)ncc2F)CC1(C)C` [III-113, 5-fluoro-N2-(4-methyl-3-(1H-tetrazol-1-yl)phenyl)-N4-(1-trideuteromethyl-2,2,6,6-tetramethylpiperidin-4-yl)pyrimidine-2,4-diamine], the half-inhibitory concentration (IC50) is less than 250 nM.

Turning to `CC1CC(Nc2nc(Nc3ccc(F)c(-n4cnnn4)c3)ncc2F)CC(C)N1C1CC1` (stereo not shown) [III-11, N^4-(1-cyclopropyl-2,6-dimethylpiperidin-4-yl)-5-fluoro-N^2-(4-fluoro-3-(1H-tetrazol-1-yl)phenyl)pyrimidine-2,4-diamine], the IC50 was 250 to 500 nM.

Regarding `CC1(C)CC(Nc2nc(Nc3ccc4c(c3)OCC(C(=O)N3CCOCC3)O4)ncc2F)CC(C)(C)N1` (stereo not shown) [II-4, (6-(4-(2,2,6,6-tetramethylpiperidin-4-ylamino)-5-fluoropyrimidin-2-ylamino)-2,3-dihydrobenzo[b][1,4]dioxin-2-yl)(morpholino)methanone], the IC50 is more than 1000 nM.

With `CC(C)Nc1cc(Nc2ncc(F)c(NC3CC(C)(C)N(C)C(C)(C)C3)n2)ccc1OC(C)C` [III-62, 5-fluoro-N2-(4-isopropoxy-3-(isopropylamino)phenyl)-N4-(1,2,2,6,6-pentamethylpiperidin-4-yl)pyrimidine-2,4-diamine], the half-maximal inhibitory concentration (IC50) is more than 1000 nM.

Take `CC(C)Oc1ncc(Nc2ncc(C(N)=O)c(NC3CC(C)(C)N(C)C(C)(C)C3)n2)cc1-c1nnnn1C(C)C` [Compound I-133, 2-(6-isopropoxy-5-(1-isopropyl-1H-tetrazol-5-yl)pyridin-3-ylamino)-4-(1,2,2,6,6-pentamethylpiperidin-4-ylamino)pyrimidine-5-carboxamide]: the IC50 lay within 500 to 1000 nM.

On to `Cc1ccc(C)n1-c1cc(Nc2ncc(F)c(NC3CC(C)(C)N(C)C(C)(C)C3)n2)ccc1OC(C)C` [Compound I-15, N2-(4-isopropyloxy-3-(2,5-dimethyl-1H-pyrrol-1-yl)phenyl)-5-fluoro-N4-(1,2,2,6,6-pentamethylpiperidin-4-yl)pyrimidine-2,4-diamine], for which the IC50 lay in the range of 500 to 1000 nM.

On to `CC(C)Oc1ncc(Nc2ncc(C(N)=O)c(NC3CC(C)(C)NC(C)(C)C3)n2)cc1-c1nnnn1C(C)C` [Compound I-134, 2-(6-isopropoxy-5-(1-isopropyl-1H-tetrazol-5-yl)pyridin-3-ylamino)-4-(2,2,6,6-tetramethylpiperidin-4-ylamino)pyrimidine-5-carboxamide], for which the IC50 is more than 1000 nM.

Turning to `CN1C(C)(C)CC(Nc2nc(Nc3ccc(OCCn4ccnn4)c(OC(F)F)c3)ncc2F)CC1(C)C` [Compound I-26, N2-(4-(2-(1H-1,2,3-triazol-1-yl)ethoxy)-3-(difluoromethoxy)phenyl)-5-fluoro-N4-(1,2,2,6,6-pentamethylpiperidin-4-yl)pyrimidine-2,4-diamine], the IC50 is 250 to 500 nM.

As for `CC1(C)CC(Nc2nc(Nc3cccc(-c4nnnn4C4CC4)c3)ncc2F)CC(C)(C)N1` [III-73, N2-(3-(1-cyclopropyl-1H-tetrazol-5-yl)phenyl)-5-fluoro-N4-(2,2,6,6-tetramethylpiperidin-4-yl)pyrimidine-2,4-diamine], the IC50 fell in the range of 500 to 1000 nM.

Take `Cn1nnnc1-c1cc(F)cc(Nc2ncc(F)c(NC3CC(C)(C)NC(C)(C)C3)n2)c1` [III-138, 5-fluoro-N2-(3-fluoro-5-(1-methyl-1H-tetrazol-5-yl)phenyl)-N4-(2,2,6,6-tetramethylpiperidin-4-yl)pyrimidine-2,4-diamine]: the IC50 was in the range of 500 to 1000 nM.

On to `Cc1nnnn1-c1cc(Nc2ncc(F)c(NC3CC(C)(C)NC(C)(C)C3)n2)ccc1F` [Compound I-10, 5-fluoro-N2-(4-fluoro-3-(5-methyl-1H-tetrazol-1-yl)phenyl)-N4-(2,2,6,6-tetramethylpiperidin-4-yl)pyrimidine-2,4-diamine], for which the IC50 was in the range of 250 to 500 nM.

Consider `CC(C)Oc1ccc(Nc2ncc(F)c(NC3CC(C)(C)NC(C)(C)C3)n2)cc1N(C)C(C)C` [III-65, 5-fluoro-N2-(4-isopropoxy-3-(isopropyl(methyl)amino)phenyl)-N4-(2,2,6,6-tetramethylpiperidin-4-yl)pyrimidine-2,4-diamine], for which the IC50 was more than 1000 nM.

For the compound `CCNC(=O)N1CCC(Oc2ccc(Nc3ncc(F)c(NC4CC(C)(C)NC(C)(C)C4)n3)cc2F)CC1` [III-17, N-ethyl-4-(2-fluoro-4-(5-fluoro-4-(2,2,6,6-tetramethylpiperidin-4-ylamino)pyrimidin-2-ylamino)phenoxy)piperidine-1-carboxamide], the IC50 was more than 1000 nM.

`Cc1ccc(Nc2ncc(F)c(NC3CC(C)(C)NC(C)(C)C3)n2)cc1-c1nnnn1C` [III-63, 5-fluoro-N2-(4-methyl-3-(1-methyl-1H-tetrazol-5-yl)phenyl)-N4-(2,2,6,6-tetramethylpiperidin-4-yl)pyrimidine-2,4-diamine]: the concentration for half-maximal inhibition (IC50) lay in the range of 250 to 500 nM.

For `CC1(C)CC(Nc2nc(Nc3ccc(-c4cccnc4)c(OC(F)F)c3)ncc2F)CC(C)(C)N1` [Compound I-63, N2-(3-(difluoromethoxy)-4-(pyridin-3-yl)phenyl)-5-fluoro-N4-(2,2,6,6-tetramethylpiperidin-4-yl)pyrimidine-2,4-diamine], the IC50 lay within 250 to 500 nM.

The test is the same for the next values; noted with them: human primary T cells stimulated with anti-CD3 + anti-CD28, 24 hours.
For `COc1ccc(Nc2ncc(F)c(NC3CC(C)(C)NC(C)(C)C3)n2)cc1-n1c(C)ccc1C` [Compound I-93, N2-[3-(2,5-Dimethyl-pyrrol-1-yl)-4-methoxy]phenyl-5-fluoro-N4-(2,2,6,6-tetramethylpiperidin-4-yl)-2,4-pyrimidinediamine], the IC50 is less than 250 nM.

Consider `CC(C)N1CCC(Oc2ccc(Nc3ncc(F)c(NC4CC(C)(C)NC(C)(C)C4)n3)cc2OC(F)F)C(F)C1` (stereo not shown) [III-106, N2-(3-(difluoromethoxy)-4-(3-fluoro-1-isopropylpiperidin-4-yloxy)phenyl)-5-fluoro-N4-(2,2,6,6-tetramethylpiperidin-4-yl)pyrimidine-2,4-diamine], for which the IC50 is less than 250 nM.
